Data published in US20190233884A1 (University of Southern California, priority 2016, published 2019).

Tested on: patients with refractory metastatic colorectal cancer (mCRC)
Test: PFS, OS and disease control in the testing (validation) cohort of refractory mCRC patients receiving TAS-102 (n=129, Italy), by baseline characteristics, SNP genotype and toxicity
Assay type: in vivo, human
Procedure: All patients underwent the treatment in salvage-line setting. […]
Genomic DNA was extracted from peripheral whole blood in patients of all cohorts using the QIAmp Kit (Qiagen, Valencia, Calif., USA) according to the manufacturer's protocol (www.qiagen.com). The candidate SNPs were genotyped using PCR-based direct DNA sequence analysis by ABI 3100A Capillary Genetic Analyzer and Sequencing Scanner v1.0 (Applied Biosystems). Amplification of extracted DNA was carried out using both forward and reverse primers for each gene polymorphism as shown in Table 1. […] The investigators analyzing SNPs were blinded to the clinical data of the study patients.
The primary endpoint in this study was progression-free survival (PFS), and the secondary endpoints were overall survival (OS) and disease control rate (DCR). PFS was calculated from the date of starting treatment to the first observation of disease progression or death from any cause. If a patient had no disease progression or death, PFS was censored at the date of last follow up. OS was calculated from the date of starting treatment until the date of death from any cause or the date of the last follow-up, at which point OS was censored. The disease control rate (DCR) was defined as the proportion of patients who achieved a stable disease (SD) or […] according to RECISTv1.1. Chi-square test was used to examine the difference in baseline patient characteristics among the three cohorts. Allelic distribution of all SNPs by ethnicity for deviation from Hardy-Weinberg equilibrium and the allelic frequencies of SNPs were tested using the Chi-square tests with one degree of freedom. The associations between candidate SNPs and disease control, and toxicities were examined using contingency tables and Fisher's exact test. The associations of SNPs with PFS and OS were analysed using Kaplan-Meier curves and the log-rank test. Because the true mode of inheritance of candidate SNPs was not established yet, a codominant or dominant genetic model if appropriate was considered.
All patients underwent the treatment in salvage-line setting. […] In all patients, adverse events were graded according to the Common Terminology Criteria for Adverse Events, version 4.0. […]
Genomic DNA was extracted from peripheral whole blood in patients of all cohorts using the QIAmp Kit (Qiagen, Valencia, Calif., USA) according to the manufacturer's protocol (www.qiagen.com). The candidate SNPs were tested using PCR-based direct DNA sequence analysis by ABI 3100A Capillary Genetic Analyzer and Sequencing Scanner v1.0 (Applied Biosystems). […] The investigators analyzing SNPs were blinded to the clinical data.
The primary endpoint in this study was progression-free survival (PFS), and the secondary endpoints were overall survival (OS) and disease control rate (DCR).

[1] = validation cohort, Performance status ECOG 1+ vs ECOG 0 (Ref.), univariate
[2] = validation cohort, Peritoneal No
[3] = validation cohort, Peritoneal No vs Yes (Ref.), univariate
[4] = validation cohort, Peritoneal Yes
[5] = validation cohort, Pre-chemo numbers <4
[6] = validation cohort, Pre-chemo numbers ≥4
[7] = validation cohort, Pre-chemo numbers ≥4 vs <4 (Ref.), univariate
[8] = validation cohort, Previous anti-EGFR No
[9] = validation cohort, Previous anti-EGFR No vs Yes (Ref.), univariate
[10] = validation cohort, Previous anti-EGFR Yes
[11] = validation cohort, Previous anti-VEGF No
[12] = validation cohort, Previous anti-VEGF No vs Yes (Ref.), univariate
[13] = validation cohort, Previous anti-VEGF Yes
[14] = validation cohort, Primary tumor resection No
[15] = validation cohort, Primary tumor resection No vs Yes (Ref.), univariate
[16] = validation cohort, Primary tumor resection Yes
[17] = validation cohort, Prior REGORA No
[18] = validation cohort, Prior REGORA No vs Yes (Ref.), univariate
[19] = validation cohort, Prior REGORA Yes
[20] = validation cohort, RAS status Mutant
[21] = validation cohort, RAS status Mutant vs Wild type (Ref.), univariate
[22] = validation cohort, RAS status Wild type
[23] = validation cohort, Sex Female vs Male (Ref.), univariate
[24] = validation cohort, Time to metastasis Metachronous
[25] = validation cohort, Time to metastasis Metachronous vs Synchronous (Ref.), univariate
[26] = validation cohort, Time to metastasis Synchronous
[27] = validation cohort, Tumor site Left
[28] = validation cohort, Tumor site Left vs Right (Ref.), univariate
[29] = validation cohort, Tumor site Right
[30] = validation cohort, XRCC3 rs861539 A/A
[31] = validation cohort, XRCC3 rs861539 A/A vs Any G (Ref.), multivariable
[32] = validation cohort, XRCC3 rs861539 A/A vs Any G (Ref.), univariate
[33] = validation cohort, XRCC3 rs861539 A/A vs G/G (Ref.), multivariable
[34] = validation cohort, XRCC3 rs861539 A/A vs G/G (Ref.), univariate
[35] = validation cohort, XRCC3 rs861539 Any A
[36] = validation cohort, XRCC3 rs861539 Any A vs G/G (Ref.), multivariable
[37] = validation cohort, XRCC3 rs861539 Any A vs G/G (Ref.), univariate
[38] = validation cohort, XRCC3 rs861539 Any G
[39] = validation cohort, XRCC3 rs861539 G/A
[40] = validation cohort, XRCC3 rs861539 G/A vs G/G (Ref.), multivariable
[41] = validation cohort, XRCC3 rs861539 G/A vs G/G (Ref.), univariate
[42] = validation cohort, XRCC3 rs861539 G/G
[43] = validation cohort, ATM rs609429 any G allele
[44] = validation cohort, ATM rs609429 any G vs C/C, univariate
[45] = whole testing (validation) cohort

Trifluridine/tipiracil [TAS-102] was tested, and the “HR OS” value [1] was 2.15, the “HR PFS” value [1] was 1.43 and the “Median OS” value [2] was 9.0 months. The “Median PFS” value [2] was 2.0 months, the “HR OS” value [3] was 0.80 and the “HR PFS” value [3] was 0.74. The “Median OS” value [4] was 5.3 months, the “Median PFS” value [4] was 1.9 months and the “Median OS” value [5] was 5.1 months. The “Median PFS” value [5] was 1.9 months, the “Median OS” value [6] was 8.7+ months and the “Median PFS” value [6] was 2.1 months. The “HR OS” value [7] was 0.57, the “HR PFS” value [7] was 0.66 and the “Median OS” value [8] was 4.4 months. For the same substance, the “Median PFS” value [8] was 1.9 months, the “HR OS” value [9] was 2.63 and the “HR PFS” value [9] was 1.53. The “Median OS” value [10] was 8.8+ months, the “Median PFS” value [10] was 2.1 months and the “Median OS” value [11] was 6.6+ months. For the same substance, the “Median PFS” value [11] was 2.8 months, the “HR OS” value [12] was 0.60 and the “HR PFS” value [12] was 0.67. For the same substance, the “Median OS” value [13] was 5.5 months, the “Median PFS” value [13] was 2.0 months and the “Median OS” value [14] was 3.9 months. For the same substance, the “Median PFS” value [14] was 1.8 months, the “HR OS” value [15] was 1.87 and the “HR PFS” value [15] was 2.13. For the same substance, the “Median OS” value [16] was 9.0 months, the “Median PFS” value [16] was 2.0 months and the “Median OS” value [17] was 5.4 months. The “Median PFS” value [17] was 2.0 months, the “HR OS” value [18] was 1.36 and the “HR PFS” value [18] was 1.20. For the same substance, the “Median OS” value [19] was 8.7+ months, the “Median PFS” value [19] was 2.0 months and the “Median OS” value [20] was 5.1 months. The “Median PFS” value [20] was 1.9 months, the “HR OS” value [21] was 1.48 and the “HR PFS” value [21] was 1.21. The “Median OS” value [22] was 8.8+ months, the “Median PFS” value [22] was 2.0 months and the “Median OS” value (validation cohort, Sex Female) was 5.3 months. For the same substance, the “Median PFS” value (validation cohort, Sex Female) was 2.1 months, the “HR OS” value [23] was 1.22 and the “HR PFS” value [23] was 0.98. For the same substance, the “Median OS” value (validation cohort, Sex Male) was 9.0 months, the “Median PFS” value (validation cohort, Sex Male) was 1.9 months and the “Median OS” value [24] was 8.5+ months. The “Median PFS” value [24] was 2.0 months, the “HR OS” value [25] was 0.59 and the “HR PFS” value [25] was 0.75. For the same substance, the “Median OS” value [26] was 5.2 months, the “Median PFS” value [26] was 1.9 months and the “Median OS” value [27] was 9.0 months. The “Median PFS” value [27] was 2.0 months, the “HR OS” value [28] was 0.78 and the “HR PFS” value [28] was 1.07. For the same substance, the “Median OS” value [29] was 5.1 months, the “Median PFS” value [29] was 1.9 months and the “Disease Control CR/PR/SD, patients n (%)” value [30] was 3 (12%). For the same substance, the “Median OS (95% CI)” value [30] was 4.2 (3.6, 8.8+) months, the “Median PFS (95% CI)” value [30] was 1.9 (1.8, 2.0) months and the “PD, patients n (%)” value [30] was 22 (88%). The “HR OS (95% CI)” value [31] was 1.05 (0.56, 1.97), the “HR PFS (95% CI)” value [31] was 1.30 (0.81, 2.09) and the “HR OS (95% CI)” value [32] was 1.29 (0.70, 2.39). For the same substance, the “HR PFS (95% CI)” value [32] was 1.37 (0.86, 2.18), the “HR OS (95% CI)” value [33] was 0.93 (0.46, 1.88) and the “HR PFS (95% CI)” value [33] was 1.26 (0.74, 2.14). The “HR OS (95% CI)” value [34] was 1.13 (0.57, 2.22), the “HR PFS (95% CI)” value [34] was 1.34 (0.80, 2.25) and the “Disease Control CR/PR/SD, patients n (%)” value [35] was 19 (26%). The “Median OS (95% CI)” value [35] was 5.8 (4.1, 9.0+) months, the “Median PFS (95% CI)” value [35] was 2.0 (1.9, 2.1) months and the “PD, patients n (%)” value [35] was 55 (74%). The “HR OS (95% CI)” value [36] was 0.84 (0.47, 1.49), the “HR PFS (95% CI)” value [36] was 1.05 (0.69, 1.60) and the “HR OS (95% CI)” value [37] was 0.88 (0.51, 1.54). For the same substance, the “HR PFS (95% CI)” value [37] was 1.07 (0.72, 1.61), the “Disease Control CR/PR/SD, patients n (%)” value [38] was 32 (32%) and the “Median OS (95% CI)” value [38] was 5.8 (4.7, 9.0+) months. The “Median PFS (95% CI)” value [38] was 2.0 (1.9, 2.3) months, the “PD, patients n (%)” value [38] was 67 (68%) and the “Disease Control CR/PR/SD, patients n (%)” value [39] was 16 (33%). For the same substance, the “Median OS (95% CI)” value [39] was 9.0 (4.6, 9.0+) months, the “Median PFS (95% CI)” value [39] was 2.0 (1.9, 2.3) months and the OS [39] was 9.0 months. For the same substance, the “PD, patients n (%)” value [39] was 33 (67%), the “HR OS (95% CI)” value [40] was 0.79 (0.41, 1.51) and the “HR PFS (95% CI)” value [40] was 0.95 (0.59, 1.51). The “HR OS (95% CI)” value [41] was 0.75 (0.40, 1.43), the “HR PFS (95% CI)” value [41] was 0.96 (0.62, 1.50) and the “Disease Control CR/PR/SD, patients n (%)” value [42] was 16 (32%). The “Median OS (95% CI)” value [42] was 5.5 (3.6, 8.7+) months, the “Median PFS (95% CI)” value [42] was 2.1 (1.7, 2.5) months and the “PD, patients n (%)” value [42] was 34 (68%). For the same substance, the OS [43] was “not reached”, the PFS [43] was 2.0 months and the “HR for OS” value [44] was 0.73. For the same substance, the “HR for PFS” value [44] was 0.78, the OS (validation cohort, XRCC3 rs861539 C/C variant (so in the source)) was 5.5 months and the “HR for OS” value (validation cohort, XRCC3 rs861539 G/A vs C/C (so in the source)) was 0.75. The “Median OS” value [45] was 5.7 months and the “Median PFS” value [45] was 2.0 months.
